In patent US10508113B2, “Inhibitors of tyrosine kinase 2 mediated signaling” (AbbVie Inc., priority 2018, dated 2019):

How the values were obtained:
[1] = biological target: T1, Jak1 (Homo sapiens, UniProt P23458); test: Jak1 (PSTAT3 TF1) alpha screen assay: inhibition of IL-6 induced phosphorylation of STAT3 in TF1 cells; assay type: cell-based; details: calculated from tabulated EC50 data (Jak1 / Tyk2)
T1 construct: endogenous in cells; host or cells: TF1 cells
Method in brief: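 IL-6-starved TF1 cells were preincubated 30 min at 37 °C with compound (top final 25 μM, 8-point 1:5 series), then stimulated with IL-6 (100 ng/mL final) for 30 min at 37 °C. Lysates were read for pSTAT3 (Tyr705) by AlphaScreen SureFire. EC50 from percent-activity dose-response curves.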

[2] = biological target: T2, Jak2 (Homo sapiens, UniProt O60674); test: Jak2 (PSTATS UT7) alpha screen assay: inhibition of EPO induced phosphorylation of STAT5 in UT7 cells; assay type: cell-based; details: calculated from tabulated EC50 data (Jak2 / Tyk2)
T2 construct: Cell Type: UT7 cells engineered to express the erythropoietin (EPO) receptor; endogenous in cells; host or cells: UT7 cells engineered to express the EPO receptor
Method: 3. JAK2 (PSTATS UT7) ALPHA SCREEN ASSAY
Erythropoietin (EPO) is known to transduce its signal through EPO receptor via Jak2. Activity against Jak2 was therefore measured by determining inhibition of EPO induced phosphorylation of STATS in UT7 cells. […] Materials
Cell Type: UT7 cells engineered to express the erythropoietin (EPO) receptor; Culture Medium: Dulbecco's Modified Eagle Medium (DMEM) with 2 mM L-glutamine, 10 mM hydroxyethyl piperazineethanesulfonic acid (HEPES), 10% heat-inactivated fetal bovine serum (FBS) and Stock EPO (5000U in 250 uL, need 5U/mL, so add 250 μL to 1L of media); Assay Medium: 5% FBS ultra-low IgG and 1% Pen/Strep. Compounds were made-up in 100% dimethyl sulfoxide (DMSO).
Day One - Starve Cells: 4 Flasks for one 384 plate (spin down @1000 rpm for 10 minutes and add DMEM with no EPO).
Day Two—Compound Dilutions:
i. Manual 8-point 1:3 dilution curve: 5 mM top concentration dispensed in row A of a
Corning 96-well polypropylene plate, columns 2-12. DMSO dispensed in position A01 for low and high controls. Compounds were serially diluted 1:3 by adding 10 μL stock to 20 μL DMSO down the plate.
ii. Media dilution of compounds: Serially diluted compounds were diluted 1:50 in assay medium by adding 4 μL compound to 196 μL assay medium in a Corning 96-well polypropylene plate.
384 Alpha Screen Plate Set up: Transferred 2.5 μL/well of compound solution from last dilution plate. Replicates were vertical, so that one column of the 96-well dilution plate goes into one column on the 384-well plate twice. Plated 1×10^5 starved cells/well in 5μL. Washed cells in 10 mL Hank's balanced salt solution (HBSS) after spinning down. Counted live cells. Multiplied by dilution factor and 10,000 (constant) to get the concentration of viable cells. Multiplied by volume of cells to get the total number of live cells. Divided by 20,000,000 cells/mL to get the volume needed. Subtracted the original volume to get the volume to be added to get the final concentration of cells. Mixed in reservoir if needed, ensuring that all cell clumps are broken up (if not broken up, they were removed from the suspension). Cells were plated at 5 μL/well in gray Alpha Screen 384-well plate. Spinned the plate to bring the contents to the bottom of the wells at 400 rpm for 2 minutes. Top final compound concentration: 25 μM. Sealed with adhesive and tapped gently. Incubated cells at 37° C. for 30 minutes.
c. EPO Stimulation (p STATS)
Once cells were in incubator, immediately prepared working stock of EPO (1 nM final assay concentration). EPO stock=2860 nM of sterile filtered liquid in sodium citrate buffer (1 liter of ddH2O containing 5.9 g of sodium citrate, 5.8 g of sodium chloride and 0.06 g of citric acid). Diluted 1:22.72 by adding 4.44 stock EPO to 95.6 pi assay media, then dilute again […] depending on how much volume is needed for the assay plates. Used assay medium to bring to volume. Added 2.5 μL EPO to each well. Spinned plate at 400 rpm briefly; tap the plate gently before covering with an adhesive seal. Cells were incubated at 37° C. for 20 minutes.
Added 2.5 μL of 5X Lysis buffer to each well. Spinned plate at 400 rpm briefly. Incubated at room temperature (on orbital shaker) for 10 minutes.
e. Protein (A) Acceptor Beads Preparation: (Light sensitive)
Phosphorylated Signal Transducer and Activator of Transcription 5 (pSTAT5) was quantified using the PerkinElmer SureFire pSTATS (Tyrosine 694/699) Assay. Calculated total volume needed (wells×15 μL×30%). Divided total volume by 5 to get volume of activation buffer. Subtracted volume of activation buffer from total volume and divide by 40 to get volume of acceptor beads (add last). Total volume - acceptor bead volume - activation buffer to get volume of reaction buffer. Added 15 μL to each well and covered with foil. Shaked on orbital shaker for 2 hours at 500 rpm.
f. Streptavidin Donor Beads Preparation:
Calculated total volume needed (wells×6μL×30%). […]

T2 sequence (O60674 whole entry): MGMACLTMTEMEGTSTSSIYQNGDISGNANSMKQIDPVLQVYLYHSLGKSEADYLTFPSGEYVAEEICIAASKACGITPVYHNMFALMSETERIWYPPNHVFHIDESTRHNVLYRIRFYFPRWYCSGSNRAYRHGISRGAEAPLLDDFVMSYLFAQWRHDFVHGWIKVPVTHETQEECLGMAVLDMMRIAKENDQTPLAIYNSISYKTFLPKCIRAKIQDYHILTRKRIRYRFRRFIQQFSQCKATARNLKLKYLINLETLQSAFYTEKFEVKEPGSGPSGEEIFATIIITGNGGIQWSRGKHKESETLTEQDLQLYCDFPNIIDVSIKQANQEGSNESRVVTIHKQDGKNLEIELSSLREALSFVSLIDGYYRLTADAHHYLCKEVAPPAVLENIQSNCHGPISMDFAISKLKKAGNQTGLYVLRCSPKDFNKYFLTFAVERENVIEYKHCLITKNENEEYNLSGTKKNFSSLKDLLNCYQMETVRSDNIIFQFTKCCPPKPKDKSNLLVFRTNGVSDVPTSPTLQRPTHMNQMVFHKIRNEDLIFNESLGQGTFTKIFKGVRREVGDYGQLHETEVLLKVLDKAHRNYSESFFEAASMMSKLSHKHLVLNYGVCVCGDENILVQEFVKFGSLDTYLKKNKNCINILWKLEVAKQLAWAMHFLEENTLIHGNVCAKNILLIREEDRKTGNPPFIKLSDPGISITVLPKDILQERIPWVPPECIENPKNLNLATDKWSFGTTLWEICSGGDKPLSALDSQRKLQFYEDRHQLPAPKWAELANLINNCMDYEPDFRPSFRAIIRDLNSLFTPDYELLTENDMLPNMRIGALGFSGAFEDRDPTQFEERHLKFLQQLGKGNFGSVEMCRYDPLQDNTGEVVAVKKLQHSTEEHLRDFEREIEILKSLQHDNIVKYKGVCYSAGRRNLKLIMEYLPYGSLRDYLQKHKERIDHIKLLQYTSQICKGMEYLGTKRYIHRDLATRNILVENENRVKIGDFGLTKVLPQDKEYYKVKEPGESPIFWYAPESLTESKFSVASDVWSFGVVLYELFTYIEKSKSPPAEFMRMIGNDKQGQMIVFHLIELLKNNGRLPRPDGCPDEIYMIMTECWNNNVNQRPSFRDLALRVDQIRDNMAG
T1 sequence (P23458 whole entry): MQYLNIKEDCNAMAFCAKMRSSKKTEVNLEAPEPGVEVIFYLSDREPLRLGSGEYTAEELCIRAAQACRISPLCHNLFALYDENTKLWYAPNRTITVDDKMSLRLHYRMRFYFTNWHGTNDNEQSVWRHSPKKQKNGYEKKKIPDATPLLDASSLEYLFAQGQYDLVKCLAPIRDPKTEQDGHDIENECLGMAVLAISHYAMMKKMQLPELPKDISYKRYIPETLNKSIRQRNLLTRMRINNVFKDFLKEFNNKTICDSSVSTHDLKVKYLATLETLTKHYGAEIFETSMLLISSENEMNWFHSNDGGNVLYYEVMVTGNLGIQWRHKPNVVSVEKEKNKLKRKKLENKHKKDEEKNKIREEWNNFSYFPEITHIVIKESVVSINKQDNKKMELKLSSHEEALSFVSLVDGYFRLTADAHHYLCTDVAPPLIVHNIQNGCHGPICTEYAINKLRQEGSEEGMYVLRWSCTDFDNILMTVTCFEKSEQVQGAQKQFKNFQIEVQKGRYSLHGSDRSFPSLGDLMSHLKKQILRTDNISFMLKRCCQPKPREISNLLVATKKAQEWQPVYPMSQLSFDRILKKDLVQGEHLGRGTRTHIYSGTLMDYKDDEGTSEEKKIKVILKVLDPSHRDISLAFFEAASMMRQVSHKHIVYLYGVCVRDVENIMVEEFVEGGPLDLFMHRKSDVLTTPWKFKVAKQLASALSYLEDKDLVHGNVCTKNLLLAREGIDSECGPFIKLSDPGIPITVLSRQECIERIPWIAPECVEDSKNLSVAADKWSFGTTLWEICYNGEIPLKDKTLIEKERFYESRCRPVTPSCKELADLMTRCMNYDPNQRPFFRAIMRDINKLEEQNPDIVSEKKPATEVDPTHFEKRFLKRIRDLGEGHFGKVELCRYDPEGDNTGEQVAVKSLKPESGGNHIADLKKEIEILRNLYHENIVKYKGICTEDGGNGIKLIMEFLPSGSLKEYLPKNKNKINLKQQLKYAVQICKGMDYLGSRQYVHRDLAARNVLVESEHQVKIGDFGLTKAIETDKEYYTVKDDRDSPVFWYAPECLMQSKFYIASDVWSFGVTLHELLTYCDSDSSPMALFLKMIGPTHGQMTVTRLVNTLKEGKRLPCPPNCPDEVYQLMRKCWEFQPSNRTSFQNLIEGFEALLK

SMILES | Tyk2 selectivity over Jak1 [1] | Tyk2 selectivity over Jak2 [2]
CO[C@@]1(c2cc(O[C@@H](C)CCO)cc(-c3cn(C)c4cnc(NC(C)=O)cc34)n2)CCOC1 [Example 14.4, N-(3-(4-(((S)-4-hydroxybutan-2-yl)oxy)-6-((R)-3-methoxytetrahydrofuran-3-yl)pyridin-2-yl)-1-methyl-1H-pyrrolo[2,3-c]pyridin-5-yl)acetamide] | 470-fold | >187-fold
CO[C@@]1(c2cc(OC[C@H](C)O)cc(-c3cn(C)c4cnc(NC(C)=O)cc34)n2)CCOC1 [Example 14.5, N-(3-(4-((S)-2-hydroxypropoxy)-6-((R)-3-methoxytetrahydrofuran-3-yl)pyridin-2-yl)-1-methyl-1H-pyrrolo[2,3-c]pyridin-5-yl)acetamide] | 486-fold | >171-fold
CO[C@@]1(c2cc(OC[C@@H](C)O)cc(-c3cn(C)c4cnc(NC(C)=O)cc34)n2)CCOC1 [Example 14.6, N-(3-(4-((R)-2-hydroxypropoxy)-6-((R)-3-methoxytetrahydrofuran-3-yl)pyridin-2-yl)-1-methyl-1H-pyrrolo[2,3-c]pyridin-5-yl)acetamide] | 563-fold | >287-fold
CO[C@@]1(c2cccc(-c3cn([C@H]4C[C@H](C#N)C4)c4cnc(NC(C)=O)cc34)n2)CCOC1 [Example 17, N-(1-((trans)-3-Cyanocyclobutyl)-3-(6-((R)-3-methoxytetrahydrofuran-3-yl)pyridin-2-yl)-1H-pyrrolo[2,3-c]pyridin-5-yl)acetamide] | 871-fold | >806-fold
CO[C@@]1(c2cc(C(F)F)cc(-c3cn([C@H]4C[C@H](C#N)C4)c4cnc(NC(C)=O)cc34)n2)CCOC1 [Example 17.2, N-(1-((trans)-3-cyanocyclobutyl)-3-(4-(difluoromethyl)-6-((R)-3-methoxytetrahydrofuran-3-yl)pyridin-2-yl)-1H-pyrrolo[2,3-c]pyridin-5-yl)acetamide] | 243-fold | >174-fold
CC(=O)Nc1cc2c(-c3cccc([C@]4(CO)CCOC4)n3)cn(C)c2cn1 [Example 21, (S)-N-(3-(6-(3-(Hydroxymethyl)tetrahydrofuran-3-yl)pyridin-2-yl)-1-methyl-1H-pyrrolo[2,3-c]pyridin-5-yl)acetamide] | 35-fold | >313-fold
COCc1cc(-c2cn(C)c3cnc(NC(C)=O)cc23)nc([C@]2(CO)CCOC2)c1 [Example 22, (S)-N-(3-(6-(3-(Hydroxymethyl)tetrahydrofuran-3-yl)-4-(methoxymethyl)pyridin-2-yl)-1-methyl-1H-pyrrolo[2,3-c]pyridin-5-yl)acetamide] | 72-fold | >171-fold
CO[C@@]1(c2cc(OC(F)F)cc(-c3cn(C)c4cnc(NC(C)=O)cc34)n2)CCOC1 [Example 22.2, (R)-N-(3-(4-(difluoromethoxy)-6-(3-methoxytetrahydrofuran-3-yl)pyridin-2-yl)-1-methyl-1H-pyrrolo[2,3-c]pyridin-5-yl)acetamide] | 393-fold | >281-fold
CC(=O)Nc1cc2c(-c3cc(C(F)F)cc([C@]4(CO)CCOC4)n3)cn(C)c2cn1 [Example 22.5, (S)-N-(3-(4-(difluoromethyl)-6-(3-(hydroxymethyl)tetrahydrofuran-3-yl)pyridin-2-yl)-1-methyl-1H-pyrrolo[2,3-c]pyridin-5-yl)acetamide] | 98-fold | >347-fold
COc1cc(-c2cn(C)c3cnc(NC(C)=O)cc23)nc([C@]2(CO)CCOC2)c1 [Example 22.6, (S)-N-(3-(6-(3-(hydroxymethyl)tetrahydrofuran-3-yl)-4-methoxypyridin-2-yl)-1-methyl-1H-pyrrolo[2,3-c]pyridin-5-yl)acetamide] | 85-fold | >192-fold
COCCOc1cc(-c2cn(C)c3cnc(NC(C)=O)cc23)nc([C@]2(CO)CCOC2)c1 [Example 22.8, (S)-N-(3-(6-(3-(hydroxymethyl)tetrahydrofuran-3-yl)-4-(2-methoxyethoxy)pyridin-2-yl)-1-methyl-1H-pyrrolo[2,3-c]pyridin-5-yl)acetamide] | 103-fold | >136-fold
CO[C@H](C)COc1cc(-c2cn(C)c3cnc(NC(C)=O)cc23)nc([C@]2(OC)CCOC2)c1 [Example 22.10, N-(3-(4-((R)-2-methoxypropoxy)-6-((R)-3-methoxytetrahydrofuran-3-yl)pyridin-2-yl)-1-methyl-1H-pyrrolo[2,3-c]pyridin-5-yl)acetamide] | >272-fold | >272-fold
COCc1cc(-c2cn(C)c3cnc(NC(=O)CO)cc23)nc([C@]2(OC)CCOC2)c1 [Example 24, (R)-2-hydroxy-N-(3-(4-(methoxymethyl)-6-(3-methoxytetrahydrofuran-3-yl)pyridin-2-yl)-1-methyl-1H-pyrrolo[2,3-c]pyridin-5-yl)acetamide] | >1087-fold | >272-fold
COCCOc1cc(-c2cn(C)c3cnc(NC(C)=O)cc23)nc([C@]2(OC)CCOC2)c1 [Example 25, (R)-N-(3-(4-(2-methoxyethoxy)-6-(3-methoxytetrahydrofuran-3-yl)pyridin-2-yl)-1-methyl-1H-pyrrolo[2,3-c]pyridin-5-yl)acetamide] | 1960-fold | >1000-fold
CO[C@@]1(c2cc(C(F)F)cc(-c3cn(C)c4cnc(NC(=O)CO)cc34)n2)CCOC1 [Example 26, (R)-N-(3-(4-(difluoromethyl)-6-(3-methoxytetrahydrofuran-3-yl)pyridin-2-yl)-1-methyl-1H-pyrrolo[2,3-c]pyridin-5-yl)-2-hydroxyacetamide] | >500-fold | >500-fold
